According to patent US4609730A, “7-[substituted imino-2-(2-aminothiazol-4-yl)-acetamido]-3(2,2-dihalovinyl or ethynyl)-3-cephem-4-carboxylic acid (syn isomers), having antimicrobial activities” (Fujisawa Pharmaceutical Co., Ltd., priority 1982, dated 1986):
In brackets after ≈: the same amount, converted by molar mass.

What was measured:
Proteus vulgaris 2 = assay: Minimal inhibitory concentration (MIC), two-fold agar-plate dilution method, Proteus vulgaris 2; format: cell-based; settings: HI-agar, 37° C., 20 hours, 10^8 viable cells per ml
Method: (§1) In vitro antibacterial activity was determined by the two-fold agar-plate dilution method as described below.
(§2) One loopful of an overnight culture of each test strain in Trypticase-soy broth (10^8 viable cells per ml) was streaked on heart infusion agar (HI-agar) containing graded concentrations of representative test compound, and the minimal inhibitory concentration (MIC) was expressed in terms of μg/ml after incubation at 37° C. for 20 hours.

in vivo = settings: rat, po, 100 mg/kg
Method: Rats anesthetized with pentobarbital were fixed in supine position, and a polyethylene cannula was inserted into the bile duct. Bile samples were collected at 0 to 3, 3 to 6, and 6 to 24 hours after oral administration of 100 mg/kg of the test antibiotic. The antibiotic levels in the bile samples were bioassayed with the standard solution prepared with M/15 phosphate buffer (pH 7.0) and the biliary recovery in 24 hours were calculated.

Proteus mirabilis 18 = assay: Minimal inhibitory concentration (MIC), two-fold agar-plate dilution method, Proteus mirabilis 18; format: cell-based; settings: HI-agar, 37° C., 20 hours, 10^8 viable cells per ml
Method: as §1, §2

Klebsiella pneumoniae 20 = assay: Minimal inhibitory concentration (MIC), two-fold agar-plate dilution method, Klebsiella pneumoniae 20; format: cell-based; settings: HI-agar, 37° C., 20 hours, 10^8 viable cells per ml
Method: as §1, §2

[1] = Urinary excretion in rats after oral administration; format: in vivo; settings: rat, 100 mg/kg, urine 0-24 hours, bioassay, read-out: Urinary recovery in 24 hours
Method: Urine of rats was collected with a urine collector at 0 to 6, and 6 to 24 hours after oral administration of 100 mg/kg of the test antibiotic. The antibiotic levels in the urine samples were bioassayed with the standard solution prepared with M/15 phosphate buffer pH 7.0) and the urinary recovery in 24 hours was calculated.

Row | MIC (Proteus vulgaris 2) [µg/mL] | dose excreted at 24 h (in vivo) [%] | MIC (Proteus mirabilis 18) [µg/mL] | MIC (Klebsiella pneumoniae 20) [µg/mL] | dose excreted at 24 h [1] [%] | Structure (SMILES)
1 | 0.025 (≈ 0.0554 µM) | 7.46 | 0.05 (≈ 0.111 µM) | 0.1 (≈ 0.222 µM) | 20 | C#CC1=C(C(=O)O)N2C(=O)C(NC(=O)/C(=N\OCC(=O)O)c3csc(N)n3)C2SC1 (stereo not drawn) [A, 7-[2-Carboxymethoxyimino-2-(2-aminothiazol-4-yl)-acetamido]-3-ethynyl-3-cephem-4-carboxylic acid (syn isomer)]
2 | 0.025 (≈ 0.0523 µM) |  | 0.05 (≈ 0.105 µM) | 0.025 (≈ 0.0523 µM) |  | CO/N=C(\C(=O)NC1C(=O)N2C(C(=O)O)=C(C=C(Cl)Cl)CSC12)c1csc(N)n1 (stereo not drawn) [B, 7-[2-Methoxyimino-2-(2-aminothiazol-4-yl)acetamido]-3-(2,2-dichlorovinyl)-3-cephem-4-carboxylic acid (syn isomer)]
